Measurements taken from patent US7288564B2, “Indole derivatives” (Glaxo Group Limited, priority 2000, dated 2007).

The molecules below were run against T1, human EP4 receptor (Homo sapiens, UniProt P35408) (assay: [125I]cAMP Scintillation Proximity Assay (cAMP assay), EP4 antagonism). Conditions: HEK-293 cells expressing recombinant human EP4; method of Arunlakshana and Schild; read-out: pKb at EP4 receptors (converted).
T1 sequence (P35408 whole entry): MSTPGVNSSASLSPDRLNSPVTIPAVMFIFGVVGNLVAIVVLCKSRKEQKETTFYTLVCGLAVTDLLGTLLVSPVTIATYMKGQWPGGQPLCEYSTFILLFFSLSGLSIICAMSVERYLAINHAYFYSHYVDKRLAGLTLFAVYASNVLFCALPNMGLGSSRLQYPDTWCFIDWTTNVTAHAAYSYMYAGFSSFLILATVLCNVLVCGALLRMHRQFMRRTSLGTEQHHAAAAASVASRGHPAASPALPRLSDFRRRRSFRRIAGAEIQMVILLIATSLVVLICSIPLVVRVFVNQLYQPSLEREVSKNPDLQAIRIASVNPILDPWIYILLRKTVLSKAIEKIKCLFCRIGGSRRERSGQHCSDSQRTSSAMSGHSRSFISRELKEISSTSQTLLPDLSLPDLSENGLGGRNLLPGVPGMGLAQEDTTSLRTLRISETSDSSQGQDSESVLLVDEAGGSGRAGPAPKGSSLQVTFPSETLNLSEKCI
Type: cell-based
Set-up: host or cells: HEK-293 cells
Method: The cAMP assay utilises HEK-293 cells expressing the recombinant human EP4 receptor, obtained from Receptor Biology, Inc. Beltsville, Md., USA. The cells were cultured in Dulbecco's Modified Eagle Medium—HAM F12 mix (DMEM-F12), containing 10% heat inactivated-foetal bovine serum (FBS) and 2 mM L-glutamine. The cells were either passaged into fresh medium or used in an assay once 90% confluency as determined visually had been achieved.
The cells were harvested by treatment with Versene, re-suspended in fresh culture medium and plated out to yield approximately 10,000 cells per well of a 96-well plate for overnight culture in culture medium additionally supplemented with 3 μM indomethacin. For assay, the culture medium was replaced with assay medium (DMEM-F12 containing 300 μM isobutylmethylxanthine (IBMX) and 3 μM indomethacin) and incubated for 30 minutes. Following this, antagonist was then added at various concentrations such that an entire agonist concentration-effect curve could be obtained in the presence of a single concentration of the antagonist. […] The amount of cAMP in each well was then determined by [^125I]cAMP scintillation proximity assay using a proprietary kit, obtained from Amersham, Buckinghamshire, UK, and according to the manufacturer's instructions.
Data from cAMP assays were expressed as pmol cAMP per well. […]
`COc1ccc2[nH]c(C)c(CC(=O)Nc3cc(C)ccc3C(=O)O)c2c1` [Example 1, 2-{[(5-methoxy-2-methyl-1H-indol-3-yl)acetyl]amino}-4-methylbenzoic acid] was tested, and the Kb was < 10 nM.

The molecules below were run against T1, human EP4 receptor (assay: Human EP4 Scintillation Proximity Assay (radioligand binding)). Conditions: membranes of CHO cells expressing human EP4; 1.25 nM [3H]-prostaglandin E2; Cheng-Prusoff; read-out: pKi at EP4 receptors (converted).
Set-up: expressed in transfected cells; host or cells: CHO cells infected with Semliki Forest Virus (SFV-1) particles; membranes prepared
Method: Quantification of radioligand binding by scintillation proximity assay (SPA) is a long-established principle. Briefly, the affinity of compounds for a receptor is assessed by the specific competition between known quantities of radiolabelled ligand compound for that receptor. Increasing concentrations of compound reduce the amount of radiolabel that binds to the receptor. This gives rise to a diminishing scintillation signal from SPA beads coated with membranes that bear the receptor. The signal may be detected with a suitable scintillation counter and the data generated may be analysed with suitable curve-fitting software.
The human EP4 SPA assay (hereafter referred to as ‘the assay’) utilises membranes prepared from Chinese Hamster Ovary (CHO cells) infected with Semliki Forest Virus (SFV). Genetically engineered SFV-1 viral particles containing the genetic sequence of the human EP4 receptor were used to infect CHO cells resulting in expression of th receptor protein in cellular membranes.
Cells washed free of media are homogenised in a pH-buffered medium containing peptidase inhibitors. A suitable buffer is of the following composition: 50 mM HEPES, 1 mM EDTA, 25 μg/ml bacitracin, 100 μM leupeptin, 1 mM PMSF, 2 μM Pepstatin A, pH adjusted to 7.4 with KOH. Following removal of cell debris by a low-speed centrifugation, a pellet of membranes is prepared by a high-speed (48000 g) centrifugation of the resulting supernatant. Membrane suspensions such as that described may be stored at −80° C. until used.
For assay, membranes expressing human EP4 receptors are diluted in a pH-buffered medium and mixed with SPA beads coated with a suitable substance to facilitate the adhesion of membranes to the beads. The concentrations of membrane protein and SPA beads chosen should result in SPA binding signal of at least 300 corrected counts per minute (CCPM) when tritiated radioligand at a concentration close to its Kd (affinity value) is combined with the mixture. Non-specific binding (nsb) may be determined by competition between the radiolabelled ligand and a saturating concentration of unlabelled ligand. In order to quantify the affinity of EP4 receptor ligands, compounds are diluted in a stepwise manner across the wells of a 96-well plate. Radioligand, compound, and unlabelled ligand are then added to a 96-well plate suitable for the measurement of SPA binding signals prior to the addition of bead/membrane mixture to initiate the binding reaction. Equilibrium may be achieved by incubation at room temperature for 120 minutes prior to scintillation counting. The data so generated may be analysed by means of a computerised curve-fitting routine in order to quantify the concentration of compound that displaces 50% of the specific radioligand binding (IC50). The affinity (pKi) of the compound may be calculated from the IC50 by application of the Cheng-Prusoff correction. Suitable reagents and protocols are: reaction buffer containing 50 mM HEPES, 10 mM MgCl2, pH adjusted to 7.4 with KOH; SPA beads coated with wheatgerm agglutinin; 1.25 nM [^3H]-prostaglandin E2 as radioligand; 10 μM prostaglandin E2 as unlabelled ligand; a three-fold dilution series of compound starting at 10 μM and ending at 0.3 nM is adequate.
With `COc1ccc2[nH]c(C)c(CC(=O)Nc3cc(C)ccc3C(=O)O)c2c1` [Example 1, 2-{[(5-methoxy-2-methyl-1H-indol-3-yl)acetyl]amino}-4-methylbenzoic acid] the Ki was ≤ 100 nM.
`Cc1ccc(C(=O)O)c(NC(=O)Cc2c[nH]c3ccccc23)c1` [Example 2, 2-[(1H-indol-3-ylacetyl)amino]-4-methylbenzoic acid] was tested, and the Ki was ≤ 100 nM.
For `Cc1ccc(C(=O)O)c(NC(=O)Cc2c(C)[nH]c3ccccc23)c1` [Example 3, 4-methyl-2-{[(2-methyl-1H-indol-3-yl)acetyl]amino}benzoic acid], the Ki was ≤ 100 nM.
In the case of `Cc1ccc(C(=O)O)c(NC(=O)Cc2c[nH]c3ccc(F)cc23)c1` [Example 4, 2-{[(5-fluoro-1H-indol-3-yl)acetyl]amino}-4-methylbenzoic acid], the Ki is reported as ≤ 100 nM.
With `Cc1ccc(C(=O)O)c(NC(=O)Cc2c[nH]c3ccc(Br)cc23)c1` [Example 6, 2-{[(5-bromo-1H-indol-3-yl)acetyl]amino}-4-methylbenzoic acid] the Ki was ≤ 100 nM.
`COc1ccc2[nH]cc(CC(=O)Nc3cc(C)ccc3C(=O)O)c2c1` [Example 7, 2-{[(5-methoxy-1H-indol-3-yl)acetyl]amino}-4-methylbenzoic acid] was tested, and the Ki was ≤ 100 nM.
`Cc1ccc(C(=O)O)c(NC(=O)Cc2c(-c3ccccc3)[nH]c3ccccc23)c1` [Example 9, 4-methyl-2-{[(2-phenyl-1H-indol-3-yl)acetyl]amino}benzoic acid] was tested, and the Ki was ≤ 100 nM.
`COc1ccc2[nH]c(C)c(CC(=O)Nc3cc(F)ccc3C(=O)O)c2c1` [Example 10, 4-fluoro-2-{[(5-methoxy-2-methyl-1H-indol-3-yl)acetyl]amino}benzoic acid] was tested, and the Ki was ≤ 100 nM.
In the case of `COc1ccc2[nH]c(C)c(CC(=O)Nc3cc(Cl)ccc3C(=O)O)c2c1` [Example 11, 4-chloro-2-{[(5-methoxy-2-methyl-1H-indol-3-yl)acetyl]amino}benzoic acid], the Ki is reported as ≤ 100 nM.
For `COc1ccc2[nH]c(C)c(CC(=O)Nc3cc([N+](=O)[O-])ccc3C(=O)O)c2c1` [Example 12, 2-{[(5-methoxy-2-methyl-1H-indol-3-yl)acetyl]amino}-4-nitrobenzoic acid], the Ki was ≤ 100 nM.
With `COc1ccc2[nH]c(C)c(CC(=O)Nc3ccccc3C(=O)O)c2c1` [Example 13, 2-{[(5-methoxy-2-methyl-1H-indol-3-yl)acetyl]amino}benzoic acid] the Ki was ≤ 100 nM.
For `COc1ccc2[nH]c(C)c(CC(=O)Nc3cc(C(F)(F)F)ccc3C(=O)O)c2c1` [Example 17, 2-{[(5-methoxy-2-methyl-1H-indol-3-yl)acetyl]amino}-4-(trifluoromethyl)benzoic acid], the Ki was ≤ 100 nM.
`COc1cc2[nH]c(C)c(CC(=O)Nc3cc(C)ccc3C(=O)O)c2cc1OC` [Example 20, 2-{[(5,6-dimethoxy-2-methyl-1H-indol-3-yl)acetyl]amino}-4-methylbenzoic acid] was tested, and the Ki was ≤ 100 nM.
With `Cc1ccc(C(=O)O)c(NC(=O)Cc2c(C)[nH]c3ccc(Cl)cc23)c1` [Example 21, 2-{[(5-chloro-2-methyl-1H-indol-3-yl)acetyl]amino}-4-methylbenzoic acid] the Ki was ≤ 100 nM.
For `CCc1ccc(C(=O)O)c(NC(=O)Cc2c(C)[nH]c3ccc(OC)cc23)c1` [Example 26, 4-ethyl-2-{[(5-methoxy-2-methyl-1H-indol-3-yl)acetyl]amino}benzoic acid], the Ki was ≤ 100 nM.
